Where a name gives a salt, the structure may show the parent alone.
How the values were obtained:
HAdV-C2-dE3B-GFP-dADP = test: fluorescence-based plaque-forming assay, HeLa cells; assay type: cell-based, human adenovirus; conditions: for TI50 (TC50/IC50): HAdV-C2-dE3B-GFP-dADP in HeLa, 5 dpi, GFP
Protocol: (§1) Per 96-well plate, 15,000 A549 cells, 10,000 HeLa cells, 30,000 HBECs, 30,000 HCE cells, or 30,000 CMT-93 cells were seeded in 100 μl of the respective supplemented medium and allowed to settle for 1 h at room temperature (RT) prior to cell culture incubation at 37°C with 5% CO2 and 95% humidity. The following day, the medium was replaced with 50 μl of the respective virus stock dilution giving rise to 5 to 50 plaques per 96-well plate. Fifty microliters of nelfinavir to obtain a 0.1 to 50 μM final concentration or the DMSO solvent control was also added, both in supplemented medium. For each experiment, a noninfected, treated control was performed. For uphill plaque assays, the medium volume was increased to 150 μl with identical virus and drug concentrations. For wash-in/washout experiments, the virus was incubated on cells in supplemented medium for 1 h at 37°C, cells were washed with PBS, and a 100-μl drug dilution in supplemented medium was added. All experiments were performed in four technical replicates or as indicated. Cells were incubated under standard cell culture conditions. At the indicated times postinfection, the cells were fixed, and the nuclei were stained for 1 h at RT by the addition of 33 μl 16% (wt/vol) paraformaldehyde (PFA) and 4 μg/ml Hoechst 33342 (Sigma-Aldrich, St. Louis, MO, USA) in PBS. Cells were washed three times with PBS and stored in PBS supplemented with 0.02% N3 for infections with viruses harboring a GFP transgene. For wild-type (wt) viruses, cells were quenched in PBS supplemented with 50 mM NH4Cl, permeabilized using 0.2% (vol/vol) Triton X-100 in PBS, and blocked with 0.5% (wt/vol) bovine serum albumin (BSA) in PBS. Cells were incubated with 381.7 ng/ml mouse anti-HAdV hexon protein antibody (Mab8052; Sigma-Aldrich, St. Louis, MO, USA) and subsequently stained using 2 μg/ml goat anti-mouse-Alexa Fluor 594 (catalog number A21203 or A32742; Thermo Fisher Scientific, Waltham, MA, USA). Plates were imaged on either an IXM-XL or an IXM-C automated high-throughput fluorescence microscope (Molecular Devices, San Jose, CA, USA) using a 4× objective in wide-field mode. Hoechst staining was recorded in the 4′,6-diamidino-2-phenylindole (DAPI) channel, the fluorescein isothiocyanate (FITC)/GFP channel was acquired for viral GFP, and the tetramethyl rhodamine isothiocyanate (TRITC)/Texas Red channel was acquired for hexon immunofluorescence staining.
(§2) The infection phenotype for each well was quantified using Plaque2.0 ([101]). The number of plaques was determined based on the infection signal (viral GFP or hexon immunofluorescence staining). Nuclei stained with Hoechst were segmented by using CellProfiler ([178]). Infected nuclei were classified based on the median infection signal per nucleus in CellProfiler. Data were plotted, and the EC50 (infected and treated cells), the TC50 (noninfected, treated cells), as well as the corresponding standard errors (SE) were determined using curve fitting in GraphPad (version 8.1.2; GraphPad Software, Inc.) using three-parameter inhibitor concentration-versus-response nonlinear regression. The mean TI50 was calculated as the […] ratio of the means. The TI50 SE was calculated by error propagation.

HAdV-C2-dE3B-GFP = test: as above; assay type: cell-based, human adenovirus; conditions: for TI50 (TC50/IC50): HAdV-C2-dE3B-GFP in HeLa, 4 dpi, GFP
Protocol: as §1, §2

MAdV-1-pIX-FS2A-GFP = test: fluorescence-based plaque-forming assay, CMT-93 cells; assay type: cell-based, mouse adenovirus 1
Protocol: Per 96-well plate, 15,000 A549 cells, 10,000 HeLa cells, 30,000 HBECs, 30,000 HCE cells, or 30,000 CMT-93 cells were seeded in 100 μl of the respective supplemented medium and allowed to settle for 1 h at room temperature (RT) prior to cell culture incubation at 37°C with 5% CO2 and 95% humidity. The following day, the medium was replaced with 50 μl of the respective virus stock dilution giving rise to 5 to 50 plaques per 96-well plate. Fifty microliters of nelfinavir to obtain a 0.1 to 50 μM final concentration or the DMSO solvent control was also added, both in supplemented medium. For each experiment, a noninfected, treated control was performed. […] Plates were imaged on either an IXM-XL or an IXM-C automated high-throughput fluorescence microscope (Molecular Devices, San Jose, CA, USA) using a 4× objective in wide-field mode. Hoechst staining was recorded in the 4′,6-diamidino-2-phenylindole (DAPI) channel, the fluorescein isothiocyanate (FITC)/GFP channel was acquired for viral GFP, and the tetramethyl rhodamine isothiocyanate (TRITC)/Texas Red channel was acquired for hexon immunofluorescence staining.
The infection phenotype for each well was quantified using Plaque2.0 ([101]). The number of plaques was determined based on the infection signal (viral GFP or hexon immunofluorescence staining). […] The mean TI50 was calculated as the EC50/TC50 ratio of the means. […]

Cc1c(O)cccc1C(=O)N[C@@H](CSc1ccccc1)[C@H](O)CN1C[C@H]2CCCC[C@H]2C[C@H]1C(=O)NC(C)(C)C [Nelfinavir, Nelfinavir mesylate]
TI50 (TC50/IC50) (HAdV-C2-dE3B-GFP-dADP): 8.91 | TI50 (TC50/IC50) (HAdV-C2-dE3B-GFP-dADP; listed as nelfinavir): 8.9 | EC50 (HAdV-C2-dE3B-GFP-dADP; Human adenovirus sp., HeLa): 4.68 µM | TI50 (TC50/IC50) (HAdV-C2-dE3B-GFP): 61.03 | TI50 (TC50/IC50) (HAdV-C2-dE3B-GFP; listed as nelfinavir): 61.0 | EC50 (HAdV-C2-dE3B-GFP; Human adenovirus sp., HeLa): 0.49 µM | TI50 (TC50/IC50) (MAdV-1-pIX-FS2A-GFP; MAdV-1-pIX-FS2A-GFP in CMT-93, 4 dpi, GFP): 1.03 | EC50 (MAdV-1-pIX-FS2A-GFP; Murine mastadenovirus A, CMT93): 20.7 µM

Source: paper PMC7449217, “The FDA-Approved Drug Nelfinavir Inhibits Lytic Cell-Free but Not Cell-Associated Nonlytic Transmission of Human Adenovirus” (Antimicrobial Agents and Chemotherapy, 2020)
